# Test results: PubChem BioAssay (NCI)
# Values joined by “and” are separate entries in the source; they are usually repeats but may differ in a detail not shown here. Equal entries are not always repeated.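 Test compounds were applied to cells in 96-well plates for 48 hours at 5 doses. At the TGI there is no net growth.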
# Columns and labels:
# Experiment in all cases: NCI tumour cell line growth inhibition, 48 h
# XF 498 CNS = system: XF 498 CNS
# RXF-631 renal = system: RXF-631 renal
# SN12K1 renal = system: SN12K1 renal
# P388/ADR leukemia = system: P388/ADR leukemia
# P388 leukemia = system: P388 leukemia
structure (smiles),measurement,setting,value
O=C1NC2(C=Cc3c(ccc4ccccc34)O2)Oc2ccccc21 (stereo unspecified),TGI,XF 498 CNS,> 100 µM
C[N+](C)(C)CC1CCCC/C1=N\O (stereo unspecified),TGI,RXF-631 renal,> 100 µM
COc1ccc(C2C(Cl)C(=O)N2NC(=O)Cc2ccccc2)cc1OC (stereo unspecified),TGI,XF 498 CNS,> 100 µM
COC(=O)C1C2CC3C(OC(=O)C31)C2OC(=O)[C@](OC)(c1ccccc1)C(F)(F)F (stereo partly specified),TGI,RXF-631 renal,> 100 µM
same,TGI,XF 498 CNS,> 100 µM
O=C1C[C@H](c2ccc(O)c(O)c2)Oc2cc(O)cc(O)c21,TGI,RXF-631 renal,> 100 µM
COC[C@@H](Cc1ccc(OC)c(OC)c1)[C@@H](COC)Cc1ccc(OC)c(OC)c1,TGI,XF 498 CNS,> 100 µM
CN(CCO)/N=N/c1[nH]ncc1C(N)=O,TGI,SN12K1 renal,> 100 µM
same,TGI,P388/ADR leukemia,> 100 µM
same,TGI,XF 498 CNS,> 100 µM
same,TGI,P388 leukemia,> 100 µM
N#C/C(=C\c1ccccc1Br)C(=O)c1ccccc1,TGI,RXF-631 renal,> 100 µM
same,TGI,XF 498 CNS,> 79.9 µM
CCCCCCCCCCSCC(CO)NC(=O)/C=C/c1c(C)[nH]c(=O)[nH]c1=O (stereo unspecified),TGI,SN12K1 renal,> 35.6 µM and 19.9 µM
same,TGI,P388/ADR leukemia,> 50 µM
same,TGI,XF 498 CNS,2.19 µM and 3.61 µM
same,TGI,P388 leukemia,7.15 µM and 6.31 µM
CC(=O)n1ccc2c(Cl)ncnc21,TGI,RXF-631 renal,> 100 µM
CC(=O)C1(O)Cc2c(O)c3c(c(O)c2C(OC2CC(N)C(O)C(C)O2)C1)C(=O)c1ccccc1C3=O (stereo unspecified),TGI,XF 498 CNS,0.181 µM
CCN(CC)CCNc1ccc2ncn3c4cc(=O)ccc4c(O)c1c23,TGI,RXF-631 renal,12.5 µM
same,TGI,XF 498 CNS,12.8 µM
